Results reported in the supplement of paper PMC11451515.

System: SEM cells
Test: cell viability relative to DMSO control; higher = less cytotoxic
Conditions: 48 h
Procedure, shortened: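 Library compounds in DMSO were pin-dosed in an 11-point threefold series (47 μM to 0.79 nM) onto leukemia cells in 1536-well plates (5 μl). Plates held 500 cells/well of NOMO1 or SEM or 1000 cells/well of P12-Ichikawa, each adapted for at least four passages in each medium. Luminescence was read with CellTiter-Glo One after 48 h at 37°C. Viability means the per-plate percentage relative to DMSO wells, using cell-free wells as background.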

[1] = HPLM + 10% dialyzed FBS, 0.000781 µM
[2] = HPLM + 10% dialyzed FBS, 0.00234 µM
[3] = HPLM + 10% dialyzed FBS, 0.00702 µM
[4] = HPLM + 10% dialyzed FBS, 0.0211 µM
[5] = HPLM + 10% dialyzed FBS, 0.0632 µM
[6] = HPLM + 10% dialyzed FBS, 0.19 µM
[7] = HPLM + 10% dialyzed FBS, 0.569 µM
[8] = HPLM + 10% dialyzed FBS, 1.71 µM
[9] = HPLM + 10% dialyzed FBS, 5.12 µM
[10] = HPLM + 10% dialyzed FBS, 15.4 µM
[11] = HPLM + 10% dialyzed FBS, 46.1 µM
[12] = RPMI 5 mM glucose + 10% FBS, 0.000781 µM
[13] = RPMI 5 mM glucose + 10% FBS, 0.00234 µM
[14] = RPMI 5 mM glucose + 10% FBS, 0.00702 µM
[15] = RPMI 5 mM glucose + 10% FBS, 0.0211 µM
[16] = RPMI 5 mM glucose + 10% FBS, 0.0632 µM
[17] = RPMI 5 mM glucose + 10% FBS, 0.19 µM
[18] = RPMI 5 mM glucose + 10% FBS, 0.569 µM
[19] = RPMI 5 mM glucose + 10% FBS, 1.71 µM
[20] = RPMI 5 mM glucose + 10% FBS, 5.12 µM
[21] = RPMI 5 mM glucose + 10% FBS, 15.4 µM
[22] = RPMI 5 mM glucose + 10% FBS, 46.1 µM
[23] = RPMI 5 mM glucose + 10% dialyzed FBS, 0.000781 µM
[24] = RPMI 5 mM glucose + 10% dialyzed FBS, 0.00234 µM
[25] = RPMI 5 mM glucose + 10% dialyzed FBS, 0.00702 µM
[26] = RPMI 5 mM glucose + 10% dialyzed FBS, 0.0211 µM
[27] = RPMI 5 mM glucose + 10% dialyzed FBS, 0.0632 µM
[28] = RPMI 5 mM glucose + 10% dialyzed FBS, 0.19 µM
[29] = RPMI 5 mM glucose + 10% dialyzed FBS, 0.569 µM
[30] = RPMI 5 mM glucose + 10% dialyzed FBS, 1.71 µM
[31] = RPMI 5 mM glucose + 10% dialyzed FBS, 5.12 µM
[32] = RPMI 5 mM glucose + 10% dialyzed FBS, 15.4 µM
[33] = RPMI 5 mM glucose + 10% dialyzed FBS, 46.1 µM

Compound | cell viability [1] [%] | cell viability [2] [%] | cell viability [3] [%] | cell viability [4] [%] | cell viability [5] [%] | cell viability [6] [%] | cell viability [7] [%] | cell viability [8] [%] | cell viability [9] [%] | cell viability [10] [%] | cell viability [11] [%] | cell viability [12] [%] | cell viability [13] [%] | cell viability [14] [%] | cell viability [15] [%] | cell viability [16] [%] | cell viability [17] [%] | cell viability [18] [%] | cell viability [19] [%] | cell viability [20] [%] | cell viability [21] [%] | cell viability [22] [%] | cell viability [23] [%] | cell viability [24] [%] | cell viability [25] [%] | cell viability [26] [%] | cell viability [27] [%] | cell viability [28] [%] | cell viability [29] [%] | cell viability [30] [%] | cell viability [31] [%] | cell viability [32] [%] | cell viability [33] [%]
COc1ccc(CCC(=O)Nc2nc3ccc(Cl)cc3s2)cc1OC | 104 | 114 | 121 | 111 | 120 | 104 | 116 | 112 | 132 | 116 | 111 | 112 | 92.8 | 108 | 102 | 123 | 127 | 124 | 126 | 115 | 104 | 95 | 120 | 102 | 105 | 113 | 120 | 107 | 101 | 121 | 102 | 117 | 105
CC(C)[C@@H](N(CCCN)C(=O)C1=CC=C(C)C=C1)C/2=C(\CC3=CC=CC=C3)C(=O)C4=C(O2)C=C(Cl)C=C4 | 22.2 | 26.3 | 24.4 | 24.6 | 26.6 | 23.9 | 28.2 | 25.2 | 25.7 | 26.6 | 5.56 | 13.8 | 20.2 | 19.9 | 22.5 | 20 | 22.6 | 22.4 | 19.1 | 27.9 | 20.9 | 13.9 | 18.5 | 20.5 | 20 | 25.6 | 19.4 | 26.5 | 20 | 21.1 | 20.8 | 18.5 | 19.4
Cl.Cl.Fc1ccc(C(OCCN2CCN(CCCc3ccccc3)CC2)c2ccc(F)cc2)cc1 | 97.4 | 96 | 99.3 | 104 | 104 | 93.2 | 97.1 | 113 | 111 | 99.7 | 32.4 | 111 | 112 | 111 | 120 | 109 | 114 | 103 | 107 | 102 | 115 | 22.3 | 84.9 | 99.5 | 105 | 118 | 120 | 124 | 130 | 122 | 120 | 110 | 27.9
c1cc(OCCN2CCCCC2)cc(-c2n[nH]c3ccc(-c4nc[nH]n4)cc23)c1 | 109 | 102 | 113 | 107 | 120 | 105 | 82.8 | 57.6 | 99.9 | 87.8 | 60.4 | 95.9 | 99.9 | 104 | 97.8 | 107 | 110 | 90.6 | 54.4 | 97.3 | 92.1 | 47.6 | 83.9 | 105 | 99.3 | 119 | 126 | 107 | 103 | 48.8 | 89.4 | 76.7 | 53.7
CC1OC(OC/2=C(/OC3=C(C(=CC(=C3)O)O)C2=O)C4=CC=C(O)C=C4)C(O)C(OC(C)=O)C1OC(C)=O (stereo not drawn) | 117 | 120 | 116 | 113 | 105 | 112 | 106 | 113 | 106 | 102 | 77.7 | – | – | – | – | – | – | – | – | – | – | – | 100 | 101 | 114 | 102 | 110 | 103 | 98.1 | 95.5 | 108 | 90.5 | 77.1
COc1ccc2cccc(CCNC(C)=O)c2c1 | 105 | 104 | 107 | 111 | 109 | 97.6 | 112 | 114 | 109 | 49.2 | 105 | 110 | 83.4 | 107 | 100 | 105 | 90 | 109 | 106 | 110 | 40.7 | 95 | 107 | 106 | 101 | 111 | 120 | 94.8 | 94.7 | 104 | 124 | 37.4 | 101
CCCn1c(=O)c2[nH]c(C34CC5CC3C[C@@H](C5)C4)nc2n(CCC)c1=O | 102 | 84.8 | 103 | 109 | 110 | 122 | 115 | 103 | 97.9 | 95.5 | 97.8 | 50.7 | 44.7 | 84.2 | 94.6 | 107 | 101 | 94.1 | 97.2 | 94.8 | 91.1 | 84.4 | 91.6 | 73.2 | 116 | 130 | 117 | 110 | 118 | 109 | 101 | 91.5 | 111
c1ccc2c(Oc3nc(Nc4ccc(N5CCOCC5)cc4)c4ncn(C5CCCCC5)c4n3)cccc2c1 | 91 | 96.7 | 101 | 112 | 120 | 116 | 131 | 120 | 99.7 | 100 | 67.1 | 101 | 122 | 138 | 133 | 133 | 136 | 125 | 139 | 108 | 105 | 67 | 108 | 141 | 115 | 130 | 142 | 129 | 126 | 109 | 126 | 110 | 53.4
